Results reported in patent US7531539B2, “Pyrrolotriazine kinase inhibitors” (Bristol-Myers Squibb Company, priority 2006, dated 2009).

Tests used:
Format in all cases: biochemical
[1] = target: T1, kinase domain of the human TrkA receptor (Homo sapiens, UniProt P04629); test: TrkA tyrosine kinase assay (33P, polyGluTyr substrate); conditions: 30 uM ATP, 0.1 mg/ml PGT
T1 construct: The kinase domain of the human TrkA receptor is expressed in Sf9 insect cells as a histidine (His)-fusion protein; His; made in house; host or cells: Sf9 insect cells (baculovirus)
T1 sequence (P04629 510-781 limits assumed): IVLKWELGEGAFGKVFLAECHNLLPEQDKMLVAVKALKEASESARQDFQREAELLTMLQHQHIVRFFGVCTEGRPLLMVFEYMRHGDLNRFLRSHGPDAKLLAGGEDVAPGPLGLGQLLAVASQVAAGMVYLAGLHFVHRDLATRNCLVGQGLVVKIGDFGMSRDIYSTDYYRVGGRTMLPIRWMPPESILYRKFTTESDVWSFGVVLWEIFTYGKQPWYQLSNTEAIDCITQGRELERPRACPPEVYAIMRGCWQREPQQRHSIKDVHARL
Source text: The ability of compounds of the present invention to inhibit tyrosine kinase activity of TrkA may be measured using a recombinant enzyme in an assay that measures the ability of compounds to inhibit the phosphorylation of the exogenous substrate, polyGluTyr (PGT, 4:1). The kinase domain of the human TrkA receptor is expressed in Sf9 insect cells as a histidine (His)-fusion protein using a baculovirus expression system. The protein is purified from the lysates of these cells using an Ni—NTA affinity column. After the recombinant enzyme is purified, it is activated by incubation with cold ATP. The enzyme assay is performed in a 96-well plate. Test compounds are first dissolved in dimethylsulfoxide (DMSO) and then serially-diluted in a 96-well plate. The serially-diluted compounds are transferred to the 96-well assay plate so that the final concentration of DMSO in the enzyme assay is 1.64%. All assay components are diluted in phosphorylation buffer (20 mm MOPS, 10 mM MgCl2, 1 mM EDTA, 0.015% Brij-35, […], 0.0025% Beta-Mercaptoethanol). The recombinant enzyme is added to the assay plate containing test compound and the reaction is initiated with a substrate solution containing a final concentration of 0.1 mg/ml PGT, 30 uM ATP, and 0.008 mCi/ml ^33P-gammaATP (3000 Ci/mmol). After a 1 hour incubation at 30° C., the reaction is terminated with 10% TCA and incubated at 4° C. for 1 hour. The reaction is filtered onto a Unifilter® GF/C™ filter plate that has been presoaked with 0.1M NaPyrophosphate. Microscint-20 is then added to the dried filter plate and the captured ^33P-phosphorylated PGT is quantitated on a microscintillation plate counter (TopCount.NXT™). Inhibition of the kinase enzymatic activity by the test compound is detected by a reduction in scintillation, and the concentration of compound that is required to inhibit the signal by 50% is reported as the IC50 value for the test compound.
(§1) Compounds described herein were tested in the TrkA and TrkB assays described above.

[2] = target: T2, kinase domain of the human TrkB receptor (amino acids 526-838) (Homo sapiens, UniProt Q16620); test: TrkB tyrosine kinase assay (33P, polyGluTyr substrate); conditions: 30 uM ATP, 0.1 mg/ml PGT
T2 construct: human TrkB receptor (amino acids 526-838); His; purchased Invitrogen; host or cells: insect cells
T2 sequence (Q16620 510-822): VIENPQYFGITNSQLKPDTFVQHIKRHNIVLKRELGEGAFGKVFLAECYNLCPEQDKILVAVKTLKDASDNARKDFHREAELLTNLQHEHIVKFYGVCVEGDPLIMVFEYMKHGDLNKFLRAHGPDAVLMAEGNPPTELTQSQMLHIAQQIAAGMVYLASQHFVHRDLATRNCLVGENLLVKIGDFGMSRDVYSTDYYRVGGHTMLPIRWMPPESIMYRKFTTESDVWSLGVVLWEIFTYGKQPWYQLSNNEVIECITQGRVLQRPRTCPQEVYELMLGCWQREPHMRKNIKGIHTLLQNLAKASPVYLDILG
Method: The ability of compounds of the present invention to inhibit tyrosine kinase activity of TrkB may be measured using a recombinant enzyme in an assay that measures the ability of compounds to inhibit the phosphorylation of the exogenous substrate, polyGluTyr (PGT, 4:1). The kinase domain of the human TrkB receptor (amino acids 526-838) is expressed in insect cells as a histidine (His)-fusion protein and is commercially available from Invitrogen™. The enzyme assay is performed in a 96-well plate. Test compounds are first dissolved in dimethylsulfoxide (DMSO) and then serially-diluted in a 96-well plate. The serially-diluted compounds are transferred to the 96-well assay plate so that the final concentration of DMSO in the enzyme assay is 1.64%. All assay components are diluted in phosphorylation buffer (20 mm MOPS, 10 mM MgCl2, 1 mM EDTA, 0.015% Brij-35, 0.1 mg/ml BSA, 0.0025% Beta-Mercaptoethanol). The recombinant enzyme is added to the assay plate containing test compound and the reaction is initiated with a substrate solution containing a final concentration of 0.1 mg/ml PGT, 30 uM ATP, and 0.008 mCi/ml ^33P-gammaATP (3000 Ci/mmol). After a 1 hour incubation at 30° C., the reaction is terminated with 10% TCA and incubated at 4° C. for 1 hour. The reaction is filtered onto a Unifilter® GF/C™ filter plate that has been pre-soaked with 0.1M NaPyrophosphate. Microscint-20 is then added to the dried filter plate and the captured ^33P-phosphorylated PGT is quantitated on a microscintillation plate counter (TopCount.NXT™). Inhibition of the kinase enzymatic activity by the test compound is detected by a reduction in scintillation, and the concentration of compound that is required to inhibit the signal by 50% is reported as the IC50 value for the test compound.
as §1

[3] = target: Casein Kinase 2 A1 kinase (Homo sapiens, UniProt P68400); test: CK2A1 kinase assay (33P, TCA precipitation)
Casein Kinase 2 A1 kinase, sequence (P68400 whole entry): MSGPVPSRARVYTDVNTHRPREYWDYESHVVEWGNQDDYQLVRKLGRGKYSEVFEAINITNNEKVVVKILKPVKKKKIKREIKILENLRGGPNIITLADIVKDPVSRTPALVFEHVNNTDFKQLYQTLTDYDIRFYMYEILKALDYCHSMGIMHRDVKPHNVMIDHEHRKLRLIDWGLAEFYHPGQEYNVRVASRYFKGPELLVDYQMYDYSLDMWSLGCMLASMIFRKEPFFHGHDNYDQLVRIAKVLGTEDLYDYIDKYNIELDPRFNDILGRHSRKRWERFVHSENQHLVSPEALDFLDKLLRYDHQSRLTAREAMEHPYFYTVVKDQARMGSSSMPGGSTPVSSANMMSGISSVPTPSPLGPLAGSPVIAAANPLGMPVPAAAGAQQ
Method: (§2) Incubation mixtures employed for the Casein Kinase 2 A1 kinase assay contain Casecin Kinase 2 A1 kinase, a synthetic peptide substrate, ATP, ATP-γ-^33 P and a Hepes buffer containing Mg^2+, NaCl, DTT, and Brij-35. Reactions were incubated for 60 minutes at 30° C. and stopped by the addition of trichloroacetic acid (TCA) to a final concentration 8%. TCA precipitates were collected onto GF/C unifilter plates using a Filtermate universal harvester and the filters are quantitated using a TopCount 96/384-well liquid scintillation counter. Dose response curves were generated to determine the concentration required to inhibit 50% of kinase activity (IC50). Compounds were dissolved at 10 mM in dimethyl sulfoxide (DMSO) and evaluated at ten concentrations, each in duplicate. The final concentration of DMSO in the assay is 1.7%. IC50 values were derived by non-linear regression.

[4] = target: Casein Kinase 2 A2 kinase (Homo sapiens, UniProt P19784); test: CK2A2 kinase assay (33P, TCA precipitation)
Casein Kinase 2 A2 kinase, sequence (P19784 whole entry): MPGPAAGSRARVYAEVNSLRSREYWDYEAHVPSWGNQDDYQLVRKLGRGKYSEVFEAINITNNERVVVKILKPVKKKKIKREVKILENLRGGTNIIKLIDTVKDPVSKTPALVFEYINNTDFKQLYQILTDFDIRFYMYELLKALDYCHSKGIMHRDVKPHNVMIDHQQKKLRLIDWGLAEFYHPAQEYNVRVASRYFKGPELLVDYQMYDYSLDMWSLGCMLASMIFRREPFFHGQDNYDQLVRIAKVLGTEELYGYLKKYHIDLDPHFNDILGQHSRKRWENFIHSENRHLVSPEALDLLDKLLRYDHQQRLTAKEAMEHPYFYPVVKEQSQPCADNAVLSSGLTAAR
Method: as §2, with “A2” for “A1”, “Casein” for “Casecin”, “ATP-γ^33P” for “ATP-γ-^33 P”, “Mg^++,” for “Mg^2+,”, “(IC^50).” for “(IC50).”

Molecule	IC50 [1] [µM]	IC50 [2] [µM]	IC50 [3] [µM]	IC50 [4] [µM]
NC1CCN(c2nc(Nc3cc(OCC4CC4)n[nH]3)c3cccn3n2)CC1 [Example 14, 2-(4-amino-1-piperidinyl)-N-(3-(cyclopropylmethoxy)-1H-pyrazol-5-yl)pyrrolo[2,1-f][1,2,4]triazin-4-amine]	0.001	0.003		
Cc1cc(Nc2nc(N3CC[C@@H](O)C3)nn3cccc23)n[nH]1 [Example 70, (3R)-1-(4-((5-methyl-1H-pyrazol-3-yl)amino)pyrrolo[2,1-f][1,2,4]triazin-2-yl)-3-pyrrolidinol]	0.023	0.038		
c1ccc(-c2cc(Nc3nc(N4CCC(c5cccnc5)C4)nn4cccc34)[nH]n2)cc1 (stereo not drawn) [Example 174, N-(3-phenyl-1H-pyrazol-5-yl)-2-(3-(pyridin-3-yl)pyrrolidin-1-yl)pyrrolo[1,2f][1,2,4]triazin-4-amine]			0.67	0.091
Cc1cc(Nc2nc(N3CCCC3c3cccnc3)nn3cccc23)[nH]n1 (stereo not drawn) [Example 209, N-(3-methyl-1H-pyrazol-5-yl)-2-(2-(pyridin-3-yl)pyrrolidin-1-yl)pyrrolo[1,2-f][1,2,4]triazin-4-amine]			6.07	1.1
N[C@H]1CCN(c2nc(Nc3cc(C4CC4)n[nH]3)c3cccn3n2)C1 [Example 91]	0.005	0.01		
N#CCC(=O)NC1CCN(c2nc(Nc3cc(C4CC4)n[nH]3)c3cccn3n2)CC1 [Example 39, 2-cyano-N-(1-(4-((3-cyclopropyl-1H-pyrazol-5-yl)amino)pyrrolo[2,1-f][1,2,4]triazin-2-yl)-4-piperidinyl)acetamide]	0.001	0.0007		
Cc1cc(Nc2nc(N3CCCC3)nn3cccc23)n[nH]1 [Example 75, N-(5-methyl-1H-pyrazol-3-yl)-2-(1-pyrrolidinyl)pyrrolo[2,1-f][1,2,4]triazin-4-amine]	0.005	0.009		
c1ccc([C@H]2C[C@@H]2c2cc(Nc3nc(N4CCC(c5cccnc5)C4)nn4cccc34)[nH]n2)cc1 (stereo partly drawn) [Example 197, N-(3-((1S,2S)-2-phenylcyclopropyl)-1H-pyrazol-5-yl)-2-(3-(pyridin-3-yl)pyrrolidin-1-yl)pyrrolo[1,2-f][1,2,4]triazin-4-amine]			11.3	1.02
Cc1cc(Nc2nc(N3Cc4ccccc4C3)nn3cccc23)[nH]n1 [Example 201, 2-(isoindolin-2-yl)-N-(3-methyl-1,2-f][1,2,4]triazin-4-amine]			0.159	0.025
Cc1cc(Nc2nc(N3CCOCC3)nn3cccc23)[nH]n1 [Example 95, N-(3-methyl-1H-pyrazol-5-yl)-2-(4-morpholinyl)pyrrolo [2,1-f][1,2,4]triazin-4-amine]	0.023	0.049		
2-(3-(2-methoxyphenyl)pyrrolidin-1-yl)-N-(3-methyl-1H-pyrazol-5-yl)pylTolo[1,2-f][1,2,4]triazin-4-amine [Example 176]			0.872	0.089
C[C@H]1C[C@@H]1c1cc(Nc2nc(N3CCC(N)CC3)nn3cccc23)[nH]n1 [Example 18, 2-(4-amino-1-piperidinyl)-N-(3-((1S,2S)-2-methylcyclopropyl)-1H-pyrazol-5-yl)pyrrolo[2,1-f][1,2,4]triazin-4-amine]	0.0008	0.001		
NC1CCN(c2nc(Nc3ccn[nH]3)c3cccn3n2)CC1 [Example 4, 2-(4-amino-1-piperidinyl)-N-1H-pyrazol-5-ylpyrrolo[2,1-f][1,2,4]triazin-4-amine]	0.123	0.312		
Cc1cc(Nc2nc(N3CCNCC3)nn3cccc23)n[nH]1 [Example 74, N-(5-methyl-1H-pyrazol-3-yl)-2-(1-piperazinyl)pyrrolo[2,1-f][1,2,4]triazin-4-amine]	0.12	0.195		
O=C(CCc1ccccc1)NC1CCN(c2nc(Nc3cc(C4CC4)n[nH]3)c3cccn3n2)CC1 [Example 43, N-(1-(4-((3-cyclopropyl-1H-pyrazol-5-yl)amino)pyrrolo[2,1-f][1,2,4]triazin-2-yl)-4-piperidinyl)-3-phenylpropanamide]	0.0004	0.0005		
CC(C)(C)c1cc(Nc2nc(N3CCC(N)CC3)nn3cccc23)[nH]n1 [Example 21, 2-(4-amino-1-piperidinyl)-N-(3-tert-butyl-1H-pyrazol-5-yl)pyrrolo[2,1-f][1,2,4]triazin-4-amine]	0.056	0.086		
NCC1CCN(c2nc(Nc3cc(-c4ccccc4)n[nH]3)c3cccn3n2)CC1 [Example 97, 2-(4-(aminomethyl)-1-piperidinyl)-N-(3-phenyl-1H-pyrazol-5-yl)pyrrolo[2,1-f][1,2,4]triazin-4-amine]	0.024	0.048		
CCC(C)c1cc(Nc2nc(N3CCC(N)CC3)nn3cccc23)[nH]n1 (stereo not drawn) [Example 19, 2-(4-amino-1-piperidinyl)-N-(3-sec-butyl-1H-pyrazol-5-yl)pyrrolo[2,1-f][1,2,4]triazin-4-amine]	0.009	0.02		
NC1CCN(c2nc(Nc3cc(C4CC4)n[nH]3)c3cccn3n2)CC1 [Example 3, 2-(4-amino-1-piperidinyl)-N-(3-cyclopropyl-1H-pyrazol-5-yl)pyrrolo[2,1-f][1,2,4]triazin-4-amine]	0.0006	0.002		
c1ccc(CNC2CCN(c3nc(Nc4cc(C5CC5)n[nH]4)c4cccn4n3)CC2)cc1 [Example 8, 2-(4-(benzylamino)-1-piperidinyl)-N-(3-cyclopropyl-1H-pyrazol-5-yl)pyrrolo[2,1-f][1,2,4]triazin-4-amine]	0.0003	0.0003		
O=C(Cc1cccs1)NC1CCN(c2nc(Nc3cc(C4CC4)n[nH]3)c3cccn3n2)CC1 [Example 49, N-(1-(4-((3-cyclopropyl-1H-pyrazol-5-yl)amino)pyrrolo[2,1-f][1,2,4]triazin-2-yl)-4-piperidinyl)-2-(2-thienyl)acetamide]	0.0009	0.0006		
